Source: PubChem BioAssay AID602427 (Sanford-Burnham Center for Chemical Genomics, 2012)
Activity calls are given as the source filed them.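 The calls were made as follows: active = EC50 at or below 20 micromolar; inactive = the rest.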

Target: Neurotensin receptor type 1 (Homo sapiens) (UniProt P30989)
Assay: NTR1 agonists, beta-arrestin recruitment, SAR follow-up, orthogonal assay for NTR1 agonist project, cell-based, luminescence, CHO-K1 NTSR1 PathHunter (AID 602427);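 also: agonist potency for NTR1 activation where higher luminescence means more arrestin recruitment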

Chain of Neurotensin receptor type 1 (Homo sapiens) (P30989 whole entry, looked up): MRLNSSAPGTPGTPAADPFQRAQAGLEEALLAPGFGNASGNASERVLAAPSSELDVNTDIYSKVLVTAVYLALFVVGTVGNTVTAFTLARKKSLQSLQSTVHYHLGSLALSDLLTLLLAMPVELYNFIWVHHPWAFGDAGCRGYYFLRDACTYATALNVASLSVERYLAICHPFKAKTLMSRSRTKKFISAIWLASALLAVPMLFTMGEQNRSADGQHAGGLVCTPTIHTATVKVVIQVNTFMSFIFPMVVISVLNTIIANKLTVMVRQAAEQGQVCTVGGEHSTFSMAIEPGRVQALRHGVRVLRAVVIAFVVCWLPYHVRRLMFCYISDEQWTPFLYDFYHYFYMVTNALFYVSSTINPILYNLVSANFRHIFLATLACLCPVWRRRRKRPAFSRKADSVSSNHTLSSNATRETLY

| EC50 | SMILES |
| --- | --- |
| inactive | COc1ccccc1N1CCN(c2ncnc3c2cnn3-c2ccc(C)cc2C)CC1 |
| > 33 µM (inactive) | COc1cc2c3nnc(-c4ccc(F)cc4)c-3cn(CC3CC3)c2cc1OC |
| > 33 µM (inactive) | COc1cc2nc(-c3ccccc3)nc(N3CCN(c4ccc(F)cc4)CC3)c2cc1OC |
| > 33 µM (inactive) | COc1ccc(Cn2c(SCc3ccccc3C)nc3cc(OC)c(OC)cc3c2=N)cc1Cl |
| inactive | COc1cc2c3nnc(-c4ccc(C)c(C)c4)c-3cn(Cc3ccc(C)cc3)c2cc1OC |
| > 33 µM (inactive) | COc1cc2c3nnc(-c4ccc(F)cc4)c-3cn(Cc3ccc(N(C)C)cc3)c2cc1OC |
| > 33 µM (inactive) | Cc1cccc(-n2ncc3c(N4CCN(c5ccccc5)CC4)ncnc32)c1 |
| > 33 µM (inactive) | COc1ccc(-c2nnc3c4ccccc4n(Cc4ccc(Cl)cc4)cc2-3)cc1 |
| 15.5 µM | COc1ccc(-c2nnc3c4cc(OC)c(OC)cc4n(Cc4ccc(C)cc4)cc2-3)cc1 |
| > 33 µM (inactive) | COc1cccc(OC)c1-c1nc(C(=O)N[C@@H](CC(C)C)C(=O)O)cn1-c1ccncc1 |
| > 33 µM (inactive) | CN(C)S(=O)(=O)c1ccc(-c2csc(N/N=C/c3ccco3)n2)cc1 |
| > 33 µM (inactive) | Cc1ccc(C)c(-n2ncc3c(N4CCN(c5ccccc5)CC4)ncnc32)c1 |
| > 33 µM (inactive) | Cc1ccc(-n2ncc3c(N4CCN(c5ccccc5Cl)CC4)ncnc32)c(C)c1 |
| > 33 µM (inactive) | Cc1ccc(Cn2cc3c(-c4ccc(C)cc4)nnc-3c3cc4c(cc32)OCO4)cc1 |
| > 33 µM (inactive) | CN(C)S(=O)(=O)c1ccc(-c2csc(N/N=C/c3cccs3)n2)cc1 |
| > 33 µM (inactive) | Cc1ccc(-n2ncc3c(N4CCN(c5cccc(Cl)c5)CC4)ncnc32)c(C)c1 |
| > 33 µM (inactive) | Cc1ccc(-n2ncc3c(N4CCN(c5ccc(Cl)c(Cl)c5)CC4)ncnc32)c(C)c1 |
| > 33 µM (inactive) | COc1ccc(Cn2c(SCc3ccc(C)cc3)nc3cc(OC)c(OC)cc3c2=N)cc1Cl |
| > 33 µM (inactive) | CC(C)C[C@H](NC(=O)c1nc(-c2ccncc2)c(-c2ccccc2)s1)C(=O)O |
| > 33 µM (inactive) | COc1ccc2c(c1)c(=O)c(C(=O)c1ccc(F)cc1)cn2Cc1ccc(F)cc1 |
| > 33 µM (inactive) | COc1ccc(-c2nnc3c4ccccc4n(Cc4ccc(C)cc4)cc2-3)cc1 |
| > 33 µM (inactive) | Clc1ccccc1-n1ncc2c(N3CCN(c4ccccc4)CC3)ncnc21 |

| EC50 | SMILES |
| --- | --- |
| > 33 µM (inactive) | CCN(CC)S(=O)(=O)c1ccc(-c2csc(N/N=C/c3ccco3)n2)cc1 |
| > 33 µM (inactive) | COc1cc2nc(-c3ccccc3)nc(N3CCN(c4ccccc4)CC3)c2cc1OC |
| > 33 µM (inactive) | CC(C)C[C@H](NC(=O)c1cn(-c2ccnc3ccccc23)c2ccccc12)C(=O)O |
| > 33 µM (inactive) | COc1ccccc1-c1nc(C(=O)N[C@@H](CC(C)C)C(=O)O)cn1-c1ccncc1 |
| > 33 µM (inactive) | COc1ccc2c3nnc(-c4ccc(C)cc4)c-3cn(Cc3ccc(F)cc3)c2c1 |
| > 33 µM (inactive) | COc1ccc2c(c1)c(=O)c(C(=O)c1ccc(F)cc1)cn2Cc1ccccc1 |
| > 33 µM (inactive) | CCOc1cc2c(N3CCN(c4ccccc4OC)CC3)nc(-c3ccc(OC)c(OC)c3)nc2cc1OC |
| > 33 µM (inactive) | COc1ccc(C(=O)c2cn(CCc3ccccc3)c3ccccc3c2=O)cc1 |
| > 33 µM (inactive) | COc1cc2nc(C3CCC3)nc(N3CCN(c4ccccc4)CC3)c2cc1OC |
| > 33 µM (inactive) | COc1cc2c(=O)c(C(=O)c3ccc(F)cc3)cn(CCc3ccccc3)c2cc1OC |
| > 33 µM (inactive) | COc1ccc(-c2nnc3c4ccccc4n(Cc4ccc(F)cc4)cc2-3)cc1 |
| > 33 µM (inactive) | COc1ccc(C(=O)c2cn(Cc3ccncc3)c3ccccc3c2=O)cc1 |
| > 33 µM (inactive) | CC(C)C[C@H](NC(=O)c1cn(-c2ccnc3cc(Cl)ccc23)c2ccccc12)C(=O)O |
| > 33 µM (inactive) | COc1cc2c3nnc(-c4ccc(F)cc4)c-3cn(Cc3ccncc3)c2cc1OC |
| > 33 µM (inactive) | Cc1cc(Cl)ccc1-n1ncc2c(N3CCN(c4ccccc4)CC3)ncnc21 |
| > 33 µM (inactive) | Cc1ccc(-n2ncc3c(N4CCN(c5ccccc5)CC4)ncnc32)cc1C |
| > 33 µM (inactive) | CCOc1cc2nc(-c3ccc(OC)c(OC)c3)nc(N3CCN(c4ccccc4)CC3)c2cc1OC |
| 18.2 µM | COc1cccc(OC)c1-c1nc(C(=O)N[C@@H](CC(C)C)C(=O)O)cn1-c1ccnc2ccccc12 |
| > 33 µM (inactive) | COc1ccc(-c2nnc3c4cc(OC)c(OC)cc4n(Cc4ccccc4)cc2-3)cc1 |
| > 33 µM (inactive) | Cc1ccc(/C=N/Nc2nc(-c3ccc(S(=O)(=O)N(C)C)cc3)cs2)cc1 |
| > 33 µM (inactive) | Cc1ccc(Cn2cc3c(-c4ccc(C)c(C)c4)nnc-3c3cc4c(cc32)OCO4)cc1 |
| > 33 µM (inactive) | Fc1ccc(-n2ncc3c(N4CCN(c5ccccc5)CC4)ncnc32)cc1 |

| EC50 | SMILES |
| --- | --- |
| > 33 µM (inactive) | Cc1ccc(-c2nnc3c4cc5c(cc4n(Cc4ccccc4)cc2-3)OCO5)cc1 |
| > 33 µM (inactive) | COc1cc2c3nnc(-c4ccc(Cl)cc4)c-3cn(Cc3ccc(C)cc3)c2cc1OC |
| > 33 µM (inactive) | COc1cc2c3nnc(-c4ccc(C)c(C)c4)c-3cn(Cc3ccc(F)cc3)c2cc1OC |
| > 33 µM (inactive) | CCCSc1nc2cc(OC)c(OC)cc2c(=N)n1Cc1ccccc1Cl |
| > 33 µM (inactive) | COc1cc2c3nnc(-c4ccc(F)cc4)c-3cn(Cc3ccc(C)cc3)c2cc1OC |
| > 33 µM (inactive) | COc1ccc2c(c1)c1nnc(-c3ccc(F)cc3)c-1cn2Cc1ccc(C)cc1 |
| > 33 µM (inactive) | COc1cccc2c(C(=O)N[C@@H](CC(C)C)C(=O)O)cn(-c3ccnc4cc(Cl)ccc34)c12 |
| > 33 µM (inactive) | COc1cccc(OC)c1-c1cc(C(=O)N[C@@H](CC(C)C)C(=O)O)nn1-c1ccnc2cc(Cl)ccc12 |
| > 33 µM (inactive) | COc1cc2c3nnc(-c4ccc(F)cc4)c-3cn(Cc3cccc(N(C)C)c3)c2cc1OC |
| > 33 µM (inactive) | Cc1ccc(-n2ncc3c(N4CCN(c5ccc([N+](=O)[O-])cc5)CC4)ncnc32)c(C)c1 |
| > 33 µM (inactive) | COc1cc2c(=O)c(C(=O)c3ccc(F)cc3)cn(Cc3ccc(N(C)C)cc3)c2cc1OC |
| > 33 µM (inactive) | COc1ccc2c3nnc(-c4ccc(C)cc4)c-3cn(Cc3ccccc3)c2c1 |
| inactive | COc1cc2c3nnc(-c4ccc(F)cc4)c-3cn(Cc3ccccc3)c2cc1OC |
| > 33 µM (inactive) | c1ccc(Cn2cc3c(-c4ccccc4)nnc-3c3ccccc32)cc1 |
| > 33 µM (inactive) | Fc1ccc(Cn2cc3c(-c4ccc(F)cc4)nnc-3c3cc4c(cc32)OCO4)cc1 |
| > 33 µM (inactive) | COc1cc2c3nnc(-c4ccc(Cl)cc4)c-3cn(Cc3ccc(F)cc3)c2cc1OC |
| > 33 µM (inactive) | CCn1cc(C(=O)c2ccc(F)cc2)c(=O)c2cc(OC)c(OC)cc21 |
| > 33 µM (inactive) | COc1ccc2c(c1)c1nnc(-c3ccc(F)cc3)c-1cn2Cc1ccccc1 |
| > 33 µM (inactive) | COc1cc2nc(SCc3ccncc3)n(Cc3cccc(C(F)(F)F)c3)c(=N)c2cc1OC |
| > 33 µM (inactive) | COc1cc2c(=O)c(C(=O)c3ccc(F)cc3)cn(CC3CC3)c2cc1OC |
| inactive | COc1cc2c3nnc(-c4ccc(C)cc4)c-3cn(Cc3ccccc3)c2cc1OC |
| > 33 µM (inactive) | Clc1ccc(-n2ncc3c(N4CCN(c5ccccc5)CC4)ncnc32)cc1 |

| EC50 | SMILES |
| --- | --- |
| > 33 µM (inactive) | COc1ccc(N2CCN(c3ncnc4c3cnn4-c3ccc(C)cc3C)CC2)cc1 |
| > 33 µM (inactive) | COc1cccc2c(C(=O)N[C@@H](CC(C)C)C(=O)O)cn(-c3ccnc4ccccc34)c12 |
| > 33 µM (inactive) | COc1cc2nc(C3CCC3)nc(N3CCN(c4ccccc4F)CC3)c2cc1OC |
| > 33 µM (inactive) | COc1ccccc1-c1nc(C(=O)N[C@@H](CC(C)C)C(=O)O)cn1-c1ccnc2cc(Cl)ccc12 |
| inactive | CC(C)C[C@H](NC(=O)c1cn(-c2ccnc3ccccc23)c2c(OCc3ccccc3)cccc12)C(=O)O |
| > 33 µM (inactive) | COc1ccc(-c2nnc3c4ccccc4n(CCc4ccccc4)cc2-3)cc1 |
| > 33 µM (inactive) | CC(C)C[C@H](NC(=O)c1cn(-c2ccnc3ccccc23)c(-c2ccccc2)n1)C(=O)O |
| > 33 µM (inactive) | Clc1ccc(-c2nnc3c4cc5c(cc4n(Cc4ccccc4)cc2-3)OCO5)cc1 |
| > 33 µM (inactive) | Cc1ccc(-n2ncc3c(N4CCN(c5cc(C)ccc5C)CC4)ncnc32)c(C)c1 |
| inactive | CCOc1ccc(-c2nnc3c4cc(OC)c(OC)cc4n(Cc4ccc(F)cc4)cc2-3)cc1 |
| > 33 µM (inactive) | CN(C)S(=O)(=O)c1ccc(-c2csc(N/N=C/c3cccc(Cl)c3)n2)cc1 |
| 0.546 µM | COc1ccccc1-c1cc(C(=O)N[C@@H](CC(C)C)C(=O)O)nn1-c1ccnc2cc(Cl)ccc12 |
| > 33 µM (inactive) | Cc1ccc(Cn2cc3c(-c4ccc(Cl)cc4)nnc-3c3cc4c(cc32)OCO4)cc1 |
| > 33 µM (inactive) | CCc1ccc(-c2nnc3c4cc(OC)c(OC)cc4n(Cc4ccc(F)cc4)cc2-3)cc1 |
| > 33 µM (inactive) | COc1cc2nc(C)nc(N3CCN(c4ccccc4OC)CC3)c2cc1OC |
| 6.08 µM | COc1cccc(OC)c1-c1nc(C(=O)N[C@@H](CC(C)C)C(=O)O)cn1-c1cccc2ccccc12 |
| > 33 µM (inactive) | COc1ccc(-c2nnc3c4ccccc4n(Cc4ccc(OC(F)(F)F)cc4)cc2-3)cc1 |
| > 33 µM (inactive) | Fc1ccc(-c2nnc3c4cc5c(cc4n(Cc4ccccc4)cc2-3)OCO5)cc1 |
| > 33 µM (inactive) | COc1ccccc1-c1cc(C(=O)N[C@@H](CC(C)C)C(=O)OC(C)(C)C)nn1-c1ccnc2cc(Cl)ccc12 |
| 6.1 µM | COc1cccc(OC)c1-c1nc(C(=O)N[C@@H](CC(C)C)C(=O)O)cn1-c1ccnc2cc(Cl)ccc12 |
| > 33 µM (inactive) | Cc1ccc(-c2nnc3c4cc5c(cc4n(Cc4ccc(F)cc4)cc2-3)OCO5)cc1C |
| > 33 µM (inactive) | CCCSc1nc2cc(OC)c(OC)cc2c(=N)n1Cc1cccc(C(F)(F)F)c1 |
